The data set deals with rodent carcinogenicity bioassays, tumor incidence. The experiment in a line: CCRIS carcinogenicity studies. The note with it: Dose: 0, Dose: 0. In a few lines: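 NCI-built, expert-reviewed records of carcinogenicity and related test outcomes (mutagenicity, tumor promotion/inhibition) compiled from published and report sources, historical span 1985-2011, not updated.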

Calls of active or inactive are those of the source. How the calls were made is not given here.

As for `c1ccc(C2CO2)cc1` (stereo not drawn), the carcinogen call was “active; positive” (Species: MOUSE, Strain/Sex: B6C3F1/FEMALE, Route: GAVAGE, 375, 750 MG/KG IN CORN OIL 3 D/WK FOR UP TO 104 WK (STUDY DURATION: 24 MO), 375, 750 MG/KG IN CORN OIL 3 D/WK FOR UP TO 104 WK (STUDY DURATION: 24 MO), Tumor Site: Type of Lesion: FORESTOMACH: PAPILLOMA, CARCINOMA); “active; positive” (Species: MOUSE, Strain/Sex: B6C3F1/MALE, Route: GAVAGE, 375, 750 MG/KG IN CORN OIL 3 D/WK FOR UP TO 104 WK (STUDY DURATION: 24 MO), 375, 750 MG/KG IN CORN OIL 3 D/WK FOR UP TO 104 WK (STUDY DURATION: 24 MO), Tumor Site: Type of Lesion: LIVER: CARCINOMA OR ADENOMA, FORESTOMACH: PAPILLOMA, CARCINOMA); “active; positive” (Species: RAT, Strain/Sex: BDIV/FEMALE, Route: GAVAGE, 100-150 MG/KG IN OLIVE OIL 1/WK FOR 96 WK ADMINISTERED TO OFFSPRING OF FEMALE RATS GIVEN 200 MG/KG ONCE ON DAY 17 OF, Tumor Site: Type of Lesion: FORESTOMACH: CARCINOMA IN SITU, CARCINOMA); “inactive; negative” (Species: RAT, Strain/Sex: BDIV/FEMALE, Route: GAVAGE, 200 MG/KG ONCE IN OLIVE OIL ON DAY 17 OF PREGNANCY (STUDY DURATION: 120 WK)); “active; positive” (Species: RAT, Strain/Sex: BDIV/MALE, Route: GAVAGE, 100-150 MG/KG IN OLIVE OIL 1/WK FOR 96 WK ADMINISTERED TO OFFSPRING OF FEMALE RATS GIVEN 200 MG/KG ONCE ON DAY 17 OF, Tumor Site: Type of Lesion: FORESTOMACH: PAPILLOMA, CARCINOMA IN SITU, CARCINOMA); “active; positive” (Species: RAT, Strain/Sex: F344/FEMALE, Route: GAVAGE, 275, 550 MG/KG IN CORN OIL 3 D/WK FOR 104 WK (STUDY DURATION: 24 MO), 275, 550 MG/KG IN CORN OIL 3 D/WK FOR 104 WK (STUDY DURATION: 24 MO), Tumor Site: Type of Lesion: FORESTOMACH: PAPILLOMA, SQUAMOUS CELL CARCINOMA). Besides, the carcinogen call (Species: RAT, Strain/Sex: F344/MALE, Route: GAVAGE, 275, 550 MG/KG IN CORN OIL 3 D/WK FOR 104 WK (STUDY DURATION: 24 MO), 275, 550 MG/KG IN CORN OIL 3 D/WK FOR 104 WK (STUDY DURATION: 24 MO), Tumor Site: Type of Lesion: FORESTOMACH: PAPILLOMA, SQUAMOUS CELL CARCINOMA) is “active; positive”; the carcinogen call (Species: RAT, Strain/Sex: SPRAGUE-DAWLEY/FEMALE, Route: GAVAGE, 50, 250 MG/KG BW IN OLIVE OIL 1/D 4-5 D/WK FOR 52 WK (STUDY DURATION: LIFETIME), 50, 250 MG/KG BW IN OLIVE OIL 1/D 4-5 D/WK FOR 52 WK (STUDY DURATION: LIFETIME), Tumor Site: Type of Lesion: [BRAIN WAS ONLY SITE EVALUATED]) is “inactive; negative”; the carcinogen call (Species: RAT, Strain/Sex: SPRAGUE-DAWLEY/FEMALE, Route: INTRAGASTRIC, 50, 250 MG/KG IN OLIVE OIL 1/D, 4-5 D/WK FOR 52 WK (STUDY DURATION: LIFESPAN, 50, 250 MG/KG IN OLIVE OIL 1/D, 4-5 D/WK FOR 52 WK (STUDY DURATION: LIFESPAN, Tumor Site: Type of Lesion: FORESTOMACH: PAPILLOMA OR ACANTHOMA, SQUAMOUS CELL CARCINOMA) is “active; positive”; the carcinogen call (Species: RAT, Strain/Sex: SPRAGUE-DAWLEY/MALE, Route: GAVAGE, 50, 250 MG/KG BW IN OLIVE OIL 1/D 4-5 D/WK FOR 52 WK (STUDY DURATION: LIFETIME), 50, 250 MG/KG BW IN OLIVE OIL 1/D 4-5 D/WK FOR 52 WK (STUDY DURATION: LIFETIME), Tumor Site: Type of Lesion: [BRAIN WAS ONLY SITE EVALUATED]) was “inactive; negative”; the carcinogen call (Species: RAT, Strain/Sex: SPRAGUE-DAWLEY/MALE, Route: INTRAGASTRIC, 50, 250 MG/KG IN OLIVE OIL 1/D, 4-5 D/WK FOR 52 WK (STUDY DURATION: LIFESPAN, 50, 250 MG/KG IN OLIVE OIL 1/D, 4-5 D/WK FOR 52 WK (STUDY DURATION: LIFESPAN, Tumor Site: Type of Lesion: FORESTOMACH: PAPILLOMA OR ACANTHOMA, SQUAMOUS CELL CARCINOMA) was “active; positive”.
Regarding `O=[N+]([O-])c1ccc2c3c1ccc1cccc(c13)[C@@H]1O[C@H]21`, the carcinogen call (Species: MOUSE, Strain/Sex: B6C3F1/FEMALE, Route: INTRAPERITONEAL, 7 NMOL (TOTAL DOSE), 1/7, 2/7 AND 4/7 OF THE TOTAL DOSE ADMINISTERED WITHIN 24 HR OF BIRTH AND AT 8 AND 15 D OF AGE) is “inactive; negative” and the carcinogen call (Species: MOUSE, Strain/Sex: B6C3F1/MALE, Route: INTRAPERITONEAL, 7 NMOL (TOTAL DOSE), 1/7, 2/7 AND 4/7 OF THE TOTAL DOSE ADMINISTERED WITHIN 24 HR OF BIRTH AND AT 8 AND 15 D OF AGE) is “inactive; negative”.
